Read-outs that look alike come from different tables or passages of the source.
Assays:
[1] = test system: Calu-6; test: CellTiter-Glo proliferation and viability assay; format: cell-based; conditions: Homo sapiens
[2] = test system: HL-60; test: CellTiter-Glo proliferation and viability assay; format: cell-based; conditions: Homo sapiens
[3] = test system: A375 cells; test: CellTiter-Blue A375 cell proliferation assay; format: cell-based; conditions: Homo sapiens, A-375, read-out: Cell Proliferation Inhibition IC50
Experimental: (§1) Collection (ATCC, Manassas, Va.). Briefly, cells are grown in DMEM High Glucose supplemented with 10% characterized fetal bovine serum (Invitrogen, Carlsbad, Calif.) and 1% Penicillin/Streptomycin/L-Glutamine at 37 degrees Celsius, 5% CO2, and 95% humidity. Cells are allowed to expand until reaching 70-95% confluency at which point they are subcultured or harvested for assay use. A serial dilution of test compound is dispensed into a 384-well black clear bottom plate in triplicate. Six hundred twenty-five cells are added per well in 50 μL complete growth medium in the 384-well plate. Plates are incubated for 67 hours at 37 degrees Celsius, 5% CO2, and 95% humidity. At the end of the incubation period, 10 μL of a 440 μM solution of resazurin (Sigma, St. Louis, Mo.) in PBS is added to each well of the plate and plates are incubated for an additional 5 hours at 37 degrees Celsius, 5% CO2, and 95% humidity. Plates are read on a Synergy2 reader (Biotek, Winooski, Vt.) using an excitation of 540 nm and an emission of 600 nm. Data is analyzed using Prism software (Graphpad, San Diego, Calif.) to calculate IC50 values.
(§2) The A375, HT-29, and Colo-205 cells (ATCC) harbor a V600E mutation.

[4] = test system: Caki-1; test: CellTiter-Glo proliferation and viability assay; format: cell-based; conditions: Homo sapiens
[5] = test system: NCI-H2030; test: CellTiter-Glo proliferation and viability assay; format: cell-based; conditions: Homo sapiens
[6] = test system: H9; test: CellTiter-Glo proliferation and viability assay; format: cell-based; conditions: Homo sapiens
[7] = test system: CCRF-CEM; test: CellTiter-Glo proliferation and viability assay; format: cell-based; conditions: Homo sapiens, read-out: Abs IC50
[8] = test system: NCI-H1436; test: CellTiter-Glo proliferation and viability assay; format: cell-based; conditions: Homo sapiens
[9] = test system: CaOV-3; test: CellTiter-Glo proliferation and viability assay; format: cell-based; conditions: Homo sapiens
[10] = test system: NCI-H2228; test: CellTiter-Glo proliferation and viability assay; format: cell-based; conditions: Homo sapiens
[11] = test system: NCI-H2126; test: CellTiter-Glo proliferation and viability assay; format: cell-based; conditions: Homo sapiens
[12] = test system: HCT-116; test: CellTiter-Glo proliferation and viability assay; conditions: Homo sapiens
[13] = test system: A375res cells; test: CellTiter-Glo proliferation and viability assay in vemurafenib-resistant cells; format: cell-based, human; conditions: Homo sapiens, A375res cells
[14] = test system: phospho-MEK and phospho-ERK in A375 xenograft; test: A375 xenograft single dose pharmacodynamic study; format: in vivo, rat; conditions: two hours post dose, Western Blot
Experimental: Briefly, 10×10^6 cells (A375) or 5×10^6 cells (HCT-116) in a 1:1 medium and matrigel mix (0.2 mL total volume) are implanted by subcutaneous injection in the hind leg of nude female rats (NIH model No. NIHRNU-M from Taconic). A total of 8 rats in each group are used for the efficacy study, and a total of 3-4 rats in each group are used for a pharmacodynamic study. The Eli Lilly and Company Animal Care and Use Committee approved all the experimental protocols. […] Tumor growth and body weight are monitored over time to evaluate activity and signs of toxicity. Bidimensional measurements of tumors are performed twice a week and tumor volumes are calculated based on mid-axis length and mid-axis width. Tumor volume data are transformed to a log scale to equalize variance across time and treatment groups. The log volume data are analyzed with a two-way repeated measures analysis of variance by time and treatment using the MIXED® procedures in SAS® software (version 8.2). The correlation model for the repeated measures is spatial power. Treated groups are compared to the control group at each time point. The MIXED® procedure is also used separately for each treatment group to calculate adjusted means and standard errors at each time point. […]

[15] = test system: DU-145; test: CellTiter-Glo proliferation and viability assay; format: cell-based; conditions: Homo sapiens
[16] = test system: TALL-1; test: CellTiter-Glo proliferation and viability assay; format: cell-based; conditions: Homo sapiens, read-out: Abs IC50
[17] = test system: HCT-116 cells; test: CellTiter-Blue HCT-116 cell proliferation assay; format: cell-based; conditions: Homo sapiens; HCT-116, CellTiter-Blue; read-out: Cell Proliferation Inhibition IC50
Experimental: as §1, with “HCT-116 cells (catalog #CCL-247) are obtained from the American Type Culture Collection” for “Collection”, “in McCoy's 5A” for “in DMEM High Glucose”, “Carlsbad, Calif.),” for “Carlsbad, Calif.)”, “reaching 75-90%” for “reaching 70-95%”
as §2

Compound: CNc1ncc2cc(-c3cc(NC(=O)NCCC(C)(C)C)c(F)cc3C)c(C)nc2n1 [Example 1, 1-(3,3-Dimethylbutyl)-3-(2-fluoro-4-methyl-5-(7-methyl-2-(methylamino)pyrido[2,3-d]pyrimidin-6-yl)phenyl)urea]
- IC50 ([1]; read-out: Abs IC50): 0.24 nM
- IC50 ([1]; read-out: Rel IC50): 0.22 nM
- IC50 ([2]; read-out: Abs IC50): 0.2 nM
- IC50 ([2]; read-out: Rel IC50): 0.14 nM
- IC50 [3]: 9 nM
- IC50 ([4]; read-out: Abs IC50): 2.91 nM
- IC50 ([4]; read-out: Rel IC50): 2.03 nM
- IC50 ([5]; read-out: Abs IC50): 0.83 nM
- IC50 ([5]; read-out: Rel IC50): 0.41 nM
- IC50 ([6]; read-out: Abs IC50): 0.33 nM
- IC50 ([6]; read-out: Rel IC50): 0.19 nM
- IC50 [7]: 1.5 nM
- IC50 ([8]; read-out: Abs IC50): 8.35 nM
- IC50 ([8]; read-out: Rel IC50): 12.7 nM
- IC50 ([9]; read-out: Abs IC50): 9.58 nM
- IC50 ([9]; read-out: Rel IC50): 5.32 nM
- IC50 ([10]; read-out: Abs IC50): > 20 nM
- IC50 ([10]; read-out: Rel IC50): 1.18 nM
- IC50 ([11]; read-out: Abs IC50): > 20 nM
- IC50 ([11]; read-out: Rel IC50): > 20 nM
- IC50 ([12]; HCT-116, read-out: Abs IC50): 0.72 nM
- IC50 ([12]; HCT-116, read-out: proliferation and viability IC50): 178 nM
- IC50 [13]: 34 nM
- phospho-MEK and phospho-ERK activities, PD effect ([14]; single dose 25 mg/kg): almost completely eliminated
- phospho-MEK and phospho-ERK, PD effect ([14]; single dose 3.125 to 50 mg/kg): inhibition was observed in all dose groups
- IC50 ([15]; read-out: Abs IC50): 5.18 nM
- IC50 ([15]; read-out: Rel IC50): 0.66 nM
- IC50 [16]: 0.75 nM
- IC50 [17]: 224 nM
